Here are results for 15 compounds from PubChem BioAssay AID330 (DTP/NCI, 2004).

In this assay the test system is P388 leukemia ip, CD2F1 mice, survival T/C. In words: NCI In Vivo Anticancer Drug Screen. Data for tumor model P388 Leukemia (intraperitoneal) in CD2F1 (CDF1) mice. As to conditions: endpoint: median survival time, higher = longer survival. The method, boiled down:
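Mice carrying the transplanted tumor received test compound or vehicle. Survival was recorded in each group, and the value is the treated-group measurement divided by that of the vehicle-treated control group.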

[1] abbreviates: dose: 12.5 mg/kg/injection, schedule: Q01DX009 (ip), vehicle: other.
Where [2] appears, read: dose: 25.0 mg/kg/injection, schedule: Q01DX009 (ip), vehicle: other.
[3] abbreviates: dose: 100.0 mg/kg/injection, schedule: Q01DX009 (ip), vehicle: other.
Setting [4] is: dose: 60.0 mg/kg/injection, schedule: Q01DX005 (ip), vehicle: saline with Tween-80.
Where [5] appears, read: dose: 120.0 mg/kg/injection, schedule: Q01DX005 (ip), vehicle: saline with Tween-80.
Where [6] appears, read: dose: 240.0 mg/kg/injection, schedule: Q01DX005 (ip), vehicle: saline with Tween-80.

Where “and” joins values, the source holds several entries; their conditions need not be identical. Identical values can stand only once. Toxic doses and inconclusive results are not listed. Peptide text beside a SMILES is read from it. * marks the point of attachment. Boc = CC(C)(C)OC(=O)*; NHNH2 = NN*

Take `COc1cccc2c1C(=O)c1c(O)c3c(c(O)c1C2=O)C[C@@](O)(C(C)O)C[C@@H]3OC1CC(N)C(O)C(C)O1` (some centres not stated): the T/C was 168 % of control (dose: 1.08 mg/kg/injection, schedule: Q01DX009 (ip), vehicle: saline); 163 % of control and 172 % of control (dose: 1.8 mg/kg/injection, schedule: Q01DX009 (ip), vehicle: saline); 159 % of control and 173 % of control (dose: 3.0 mg/kg/injection, schedule: Q01DX009 (ip), vehicle: saline); 150 % of control (dose: 3.0 mg/kg/injection, schedule: Q04DX003 (ip), vehicle: saline); 173 % of control and 195 % of control (dose: 5.0 mg/kg/injection, schedule: Q01DX009 (ip), vehicle: saline); 154 % of control (dose: 5.0 mg/kg/injection, schedule: Q04DX003 (ip), vehicle: saline). Besides, the T/C was 154 % of control (dose: 8.0 mg/kg/injection, schedule: Q01DX001 (ip), vehicle: saline); 150 % of control (dose: 8.0 mg/kg/injection, schedule: Q01DX009 (ip), vehicle: saline); 163 % of control (dose: 8.0 mg/kg/injection, schedule: Q04DX003 (ip), vehicle: saline); 90 % of control (dose: 13.3 mg/kg/injection, schedule: Q01DX009 (ip), vehicle: saline); 172 % of control (dose: 13.3 mg/kg/injection, schedule: Q04DX003 (ip), vehicle: saline); 181 % of control (dose: 22.2 mg/kg/injection, schedule: Q01DX001 (ip), vehicle: saline). Besides, the T/C reads like this: (dose: 37.0 mg/kg/injection, schedule: Q01DX001 (ip), vehicle: saline) 163 % of control; (dose: 37.0 mg/kg/injection, schedule: Q04DX003 (ip), vehicle: saline) 100 % of control; (dose: 61.7 mg/kg/injection, schedule: Q01DX001 (ip), vehicle: saline) 90 % of control.
Turning to `Cc1cc(C)c(S(=O)(=O)N/N=C/C(=O)O)c(C)c1`, the T/C under setting [1] was 112 % of control and 117 % of control; the T/C under setting [2] is 122 % of control; the T/C under setting [3] was 154 % of control.
For the compound `CCN(CC)P(CCCCP(N(CC)CC)N(CC)CC)N(CC)CC`, the T/C runs as follows: (dose: 60.0 mg/kg/injection, schedule: Q01DX005 (ip), vehicle: Klucel (hydroxypropylcellulose) (HPC)) 106 % of control; (dose: 120.0 mg/kg/injection, schedule: Q01DX005 (ip), vehicle: Klucel (hydroxypropylcellulose) (HPC)) 103 % of control; (dose: 240.0 mg/kg/injection, schedule: Q01DX005 (ip), vehicle: Klucel (hydroxypropylcellulose) (HPC)) 104 % of control.
On to `O=C1CCC(c2nc(=S)[nH][nH]2)N1Cc1ccccc1` (configuration not stated), for which the T/C is, setting by setting: under setting [4], 101 % of control; under setting [5], 102 % of control; under setting [6], 101 % of control.
Take `CCn1c(=O)c(Cl)c2n(CC)c3ccccc3n2c1=O`: the T/C under setting [4] was 97 % of control, the T/C under setting [5] was 89 % of control and the T/C under setting [6] is 87 % of control.
For the compound `Cc1cc(N/N=C/c2ccccn2)nc2ccccc12`, the T/C by setting is: (dose: 12.5 mg/kg/injection, schedule: Q01DX005 (ip), vehicle: Klucel (hydroxypropylcellulose) (HPC)) 101 % of control; (dose: 25.0 mg/kg/injection, schedule: Q01DX005 (ip), vehicle: Klucel (hydroxypropylcellulose) (HPC)) 112 % of control.
As to `CNC(=O)OCc1ccc(NCCN(C)C)c2c(=O)c3cc(O)ccc3sc12`, the T/C (dose: 12.5 mg/kg/injection, schedule: Q01DX005 (ip), vehicle: saline with Tween-80) was 112 % of control.
With `CCOC(=O)C1=C(C(=O)c2ccccc2)C(c2cccc([N+](=O)[O-])c2)C(C(=O)c2ccccc2)=C(C(=O)OCC)N1`, the T/C runs as follows: (dose: 30.0 mg/kg/injection, schedule: Q01DX005 (ip), vehicle: saline with Tween-80) 104 % of control; under setting [4], 104 % of control; under setting [5], 104 % of control; under setting [6], 104 % of control.
With `CC(C)C1OC(=O)/C=C/C=C/C=C/C=C/C=C/CC(O)C(C)C(O)CC(O)CC(O)CC(O)CC(O)CC(O)CC(O)/C=C/C1C` (configuration not stated), the T/C is 100 % of control (dose: 1.56 mg/kg/injection, schedule: Q01DX009 (ip), vehicle: saline); 96 % of control (dose: 3.12 mg/kg/injection, schedule: Q01DX009 (ip), vehicle: saline); 102 % of control and 92 % of control (dose: 6.25 mg/kg/injection, schedule: Q01DX009 (ip), vehicle: saline).
Regarding `NC(=O)c1ccc(NC(=O)/C=C/C(=O)Nc2ccc(C(N)=O)cn2)nc1`, the T/C reads like this: (dose: 1.65 mg/kg/injection, schedule: Q01DX009 (ip), vehicle: saline with Tween-80) 109 % of control; (dose: 2.5 mg/kg/injection, schedule: Q01DX009 (ip), vehicle: saline with Tween-80) 118 % of control; (dose: 2.5 mg/kg/injection, schedule: Q04DX003 (ip), vehicle: saline with Tween-80) 100 % of control; (dose: 3.75 mg/kg/injection, schedule: Q01DX009 (ip), vehicle: saline with Tween-80) 104 % of control; (dose: 5.0 mg/kg/injection, schedule: Q04DX003 (ip), vehicle: saline with Tween-80) 100 % of control; (dose: 10.0 mg/kg/injection, schedule: Q04DX003 (ip), vehicle: saline with Tween-80) 100 % of control and 118 % of control. Also, the T/C reads like this: (dose: 20.0 mg/kg/injection, schedule: Q04DX003 (ip), vehicle: saline with Tween-80) 100 % of control; (dose: 625.0 micrograms/kg/injection, schedule: Q01DX009 (ip), vehicle: saline with Tween-80) 104 % of control; (dose: 1250.0 micrograms/kg/injection, schedule: Q01DX009 (ip), vehicle: saline with Tween-80) 122 % of control.
For the compound `Cc1ccc(S(=O)(=O)N(CCOc2c3occc3cc3ccc(=O)oc23)CCN(CCN(CCOc2c3occc3cc3ccc(=O)oc23)S(=O)(=O)c2ccc(C)cc2)S(=O)(=O)c2ccc(C)cc2)cc1`, the T/C is 87 % of control (dose: 100.0 mg/kg/injection, schedule: Q01DX001 (ip), vehicle: saline with Tween-80) and 86 % of control (dose: 200.0 mg/kg/injection, schedule: Q01DX001 (ip), vehicle: saline with Tween-80).
Regarding `CCOC(=O)C1=C(C)/C(=C\c2[nH]c(C)c(C(=O)OCC)c2C)N=C1C`, the T/C under setting [4] was 103 % of control, the T/C under setting [5] is 94 % of control and the T/C under setting [6] is 96 % of control.
For `O=[N+]([O-])CCCN=NN1CCCCC1`, the T/C runs as follows: (dose: 12.5 mg/kg/injection, schedule: Q04DX002 (ip), vehicle: saline) 104 % of control; (dose: 25.0 mg/kg/injection, schedule: Q04DX002 (ip), vehicle: saline) 107 % of control; (dose: 50.0 mg/kg/injection, schedule: Q04DX002 (ip), vehicle: saline) 103 % of control.
As for `CC(C)CC(NC(=O)C(Cc1c[nH]c2ccccc12)NC(=O)OC(C)(C)C)C(=O)NN` (stereo not drawn) (Boc-Trp-Leu-NHNH2; configuration not given here), the T/C by setting is: under setting [1], 100 % of control; under setting [2], 94 % of control; (dose: 50.0 mg/kg/injection, schedule: Q01DX009 (ip), vehicle: other) 97 % of control; under setting [3], 105 % of control and 110 % of control.
As for `[NH-]C(CO)C(=O)O.[NH-]C(CO)C(=O)O.[Pd+2]` (configuration not stated), the T/C (dose: 3.13 mg/kg/injection, schedule: Q04DX003 (ip), vehicle: water) is 103 % of control; the T/C (dose: 6.25 mg/kg/injection, schedule: Q04DX003 (ip), vehicle: water) was 100 % of control; the T/C (dose: 12.5 mg/kg/injection, schedule: Q01DX009 (ip), vehicle: acid diluted with saline) was 108 % of control; the T/C (dose: 12.5 mg/kg/injection, schedule: Q01DX009 (ip), vehicle: water) is 104 % of control and 113 % of control; the T/C (dose: 12.5 mg/kg/injection, schedule: Q04DX003 (ip), vehicle: water) was 97 % of control; the T/C (dose: 25.0 mg/kg/injection, schedule: Q01DX009 (ip), vehicle: acid diluted with saline) was 109 % of control. For the same compound, the T/C is 108 % of control and 109 % of control (dose: 25.0 mg/kg/injection, schedule: Q01DX009 (ip), vehicle: water); 103 % of control (dose: 25.0 mg/kg/injection, schedule: Q04DX003 (ip), vehicle: water); 113 % of control (dose: 50.0 mg/kg/injection, schedule: Q01DX009 (ip), vehicle: acid diluted with saline); 104 % of control and 117 % of control (dose: 50.0 mg/kg/injection, schedule: Q01DX009 (ip), vehicle: water); 117 % of control (dose: 50.0 mg/kg/injection, schedule: Q04DX003 (ip), vehicle: water); 104 % of control (dose: 100.0 mg/kg/injection, schedule: Q01DX009 (ip), vehicle: acid diluted with saline). The T/C by setting is: (dose: 100.0 mg/kg/injection, schedule: Q01DX009 (ip), vehicle: water) 86 % of control; (dose: 100.0 mg/kg/injection, schedule: Q04DX003 (ip), vehicle: water) 106 % of control.
